One assay concerns arginase 2. The following applies: cited from earlier work.
The next assay concerns arginase 1. The following applies: arginase 1; range previously reported; cited from earlier work.
Assay [1] has as its target T1, recombinant human arginase 2 (Homo sapiens, UniProt P78540).
T1 sequence (P78540 23-354): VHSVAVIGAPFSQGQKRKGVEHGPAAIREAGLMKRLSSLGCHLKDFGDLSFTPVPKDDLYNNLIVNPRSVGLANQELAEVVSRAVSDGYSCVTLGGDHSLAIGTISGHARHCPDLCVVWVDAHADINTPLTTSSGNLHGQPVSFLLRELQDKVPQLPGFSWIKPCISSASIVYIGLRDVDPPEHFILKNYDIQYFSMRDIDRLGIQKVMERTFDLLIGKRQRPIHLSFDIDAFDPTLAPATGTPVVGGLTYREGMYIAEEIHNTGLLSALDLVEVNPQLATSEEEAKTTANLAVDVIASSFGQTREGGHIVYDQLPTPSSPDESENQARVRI
Kind of assay: Arginase 2 activity assay, kinetics of ARG conversion to ORN. It is filed as biochemical.

The target of assay [2] is T2, recombinant human arginase 1 (Homo sapiens, UniProt P05089).
T2 sequence (P05089 1-322): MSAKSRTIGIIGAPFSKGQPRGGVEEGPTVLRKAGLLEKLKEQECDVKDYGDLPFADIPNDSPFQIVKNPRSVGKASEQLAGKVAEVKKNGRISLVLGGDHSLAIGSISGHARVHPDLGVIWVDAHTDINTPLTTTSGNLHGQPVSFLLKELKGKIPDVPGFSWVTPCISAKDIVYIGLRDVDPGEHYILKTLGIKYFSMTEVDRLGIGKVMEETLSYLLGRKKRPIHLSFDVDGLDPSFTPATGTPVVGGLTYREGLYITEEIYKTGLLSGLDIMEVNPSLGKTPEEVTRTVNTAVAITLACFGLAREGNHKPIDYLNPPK
Kind of assay: Arginase 1 activity assay, kinetics of ARG conversion to ORN. The assay is classed as biochemical. Conditions: for Vmax (nmol·min^−1·mg^−1) ± SE / Km: conversion of ARG to ORN.
Procedure: Incubation mixtures contained HEK293T cell lysate expressing recombinant human arginase 1 (0.05 mg/mL) or arginase 2 (0.1 mg/mL), phosphate buffer (0.05 M, pH 7.4) and ARG (0 to 15 mM).
(§1) Following a 5-min pre-equilibration period reactions were initiated by the addition of the cell lysate solution in 0.05 M phosphate buffer to a pre-equilibrated aqueous solution of the substrate (ARG).
(§2) The samples were vortex mixed (20 sec) and cooled in an ice/water bath for 10 min prior to centrifugation (5 min, 18,000 × g, room temperature) to precipitate the proteins. An aliquot of the supernatant layer was diluted with a 7:3 mobile phase A/mobile phase B solution into glass UPLC vial inserts.
Kinetic data are the mean of three singlicate experiments.

The target of assay [3] is T2, recombinant human arginase 1. Kind of assay: Arginase 1 inhibition, UPLC-MS measurement of ARG to ORN conversion in HEK293T cell lysate.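 On all read-outs here: arginase 1–expressing HEK293T lysate at 0.05 mg/mL in pH 7.4 phosphate buffer, inhibitor preincubated 5 min with enzyme, then reaction started by adding ARG.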 The following applies: for remaining activity at 1 µM / remaining activity at 10 µM / remaining activity at 100 µM / remaining activity at 1000 µM / remaining activity at 10000 µM: read-out: % of control activity at the corresponding [Inhibitor] ± SE, arginase 1; for remaining activity at 1 µM / remaining activity at 10 µM / remaining activity at 100 µM / remaining activity at 1000 µM / remaining activity at 10000 µM / % of control activity at the corresponding [Inhibitor] ± SE: mean of two experiments; for remaining activity at 10000 µM: inhibitor 10,000 µM; for inhibition at 1000 µM: inhibitor 1 mM; for inhibition at 10000 µM: inhibitor 10 mM.
Procedure: as §1, §2
(§3) Incubation mixtures comprised of HEK293T cell lysate expressing arginase 1 (0.05 mg/mL) or arginase 2 (0.1 mg/mL), phosphate buffer (0.05 M, pH 7.4), inhibitor (0, 0.1, 1, 10, 100, 1000 or 10000 μM) and ARG (0.1, 2 or 3 mM). Following a 5-min pre-incubation of the potential inhibitor with arginase 1 or arginase 2, reactions were initiated by the addition of a pre-equilibrated solution of the substrate ARG.
Ki values were derived from fitting the competitive inhibition equation to experimental data. Ki data are the mean of three singlicate experiments.

Assay [4] has as its target T1, recombinant human arginase 2. Kind of assay: Arginase 2 inhibition, UPLC-MS measurement of ARG to ORN conversion in HEK293T cell lysate.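 On all read-outs here: HEK293T lysate carrying arginase 2 at 0.1 mg/mL in 0.05 M phosphate buffer pH 7.4, inhibitor preincubated with enzyme 5 min before ARG addition started the reaction.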 The following applies: for remaining activity at 1 µM / remaining activity at 10 µM / remaining activity at 100 µM / remaining activity at 1000 µM / remaining activity at 10000 µM: read-out: % of control activity at the corresponding [Inhibitor] ± SE, arginase 2; for remaining activity at 1 µM / remaining activity at 10 µM / remaining activity at 100 µM / remaining activity at 1000 µM / remaining activity at 10000 µM / % of control activity at the corresponding [Inhibitor] ± SE: mean of two experiments; for remaining activity at 10000 µM: inhibitor 10,000 µM; for inhibition at 1000 µM: inhibitor 1 mM; for inhibition at 10000 µM: inhibitor 10 mM.
Procedure: as §1, §2, §3
Sample were diluted 3:17 in mobile phase solution prior injection.

Where [5] appears, read: read-out: inhibition of arginase 1 activity, ARG 100 µM (physiological).
Setting [6] is: read-out: inhibition of arginase 1 activity, ARG 3 mM (Km).
Setting [7] is: read-out: inhibition of arginase 2, ARG 100 µM.
Setting [8] is: read-out: inhibition of arginase 2, ARG 2 mM.

Each structure is given as a SMILES string. Where “and” joins values, the source holds several entries; their conditions need not be identical. Equal values may be shown once. Where a name gives a salt, the structure may show the parent alone. Read-outs that look alike come from different tables or passages of the source.

Take `N=C(N)NCCC[C@H](N)C(=O)O` [ARG, arginine]: the Michaelis-Menten constant (Km) was 1000 to 7000 µM with arginase 2 (arginase 2, range previously reported); 1000 to 9000 µM with arginase 1; 2.4 ± 0.1 mM in assay [1] (Expt 1, read-out: Km (mM) ± SE); 1.7 ± 0.1 mM in assay [1] (Expt 2, read-out: Km (mM) ± SE); 1.8 ± 0.1 mM in assay [1] (Expt 3, read-out: Km (mM) ± SE); 1.9 ± 0.1 mM in assay [1] (Mean, read-out: Km (mM) ± SE). Also, the Michaelis constant (Km) in assay [2] (Expt 1, read-out: Km (mM) ± SE) was 3.4 ± 0.4 mM; in assay [2] (Expt 2, read-out: Km (mM) ± SE) it was 3.8 ± 0.2 mM; in assay [2] (Expt 3, read-out: Km (mM) ± SE), 3.5 ± 0.2 mM. The “Vmax (pmol·min^−1·mg^−1) ± SE” value in assay [1] (Expt 1) is 984 ± 8 pmol/min/mg; in assay [1] (Expt 2), 837 ± 12 pmol/min/mg; in assay [1] (Expt 3), 834 ± 5 pmol/min/mg; in assay [1] (Mean), 883 ± 16 pmol/min/mg. The “Vmax (nmol·min^−1·mg^−1) ± SE” value in assay [2] (Expt 1) stood at 37 ± 1 nmol/min/mg; in assay [2] (Expt 2) it was 32 ± 1 nmol/min/mg; in assay [2] (Expt 3) it was 35 ± 1 nmol/min/mg; in assay [2] (Mean), 34 ± 1 nmol/min/mg.

On to `NCCCC[C@H](N)C(=O)O` [LYS, lysine], for which the “inhibitory effect on arginase 1 activity at physiological inhibitor concentrations” value in assay [3] (LYS 100–1000 µM, HOMOARG 1–10 µM) is listed as “no significant inhibitory effects”. The “inhibition model fitting the data” value in assay [3] (arginase 1, poorly fit by uncompetitive, noncompetitive and mixed models) is “competitive”; in assay [4] (arginase 2, poorly fit by uncompetitive, noncompetitive and mixed models), “competitive”. Moreover, the remaining activity at 1 µM stood at 88 ± 21% in assay [3] (ARG 100 µM, inhibitor 1 µM); 108 ± 13% in assay [3] (ARG 3 mM, inhibitor 1 µM); 92 ± 6% in assay [4] (ARG 100 µM, inhibitor 1 µM); 88 ± 6% in assay [4] (ARG 2 mM, inhibitor 1 µM). The remaining activity at 10 µM in assay [3] (ARG 100 µM, inhibitor 10 µM) came out at 89 ± 10%; in assay [3] (ARG 3 mM, inhibitor 10 µM) it was 103 ± 10%; in assay [4] (ARG 100 µM, inhibitor 10 µM), 97 ± 5%; in assay [4] (ARG 2 mM, inhibitor 10 µM), 82 ± 6%. The remaining activity at 100 µM came to 105 ± 18% in assay [3] (ARG 100 µM, inhibitor 100 µM); 82 ± 4% in assay [3] (ARG 3 mM, inhibitor 100 µM); 78 ± 11% in assay [4] (ARG 100 µM, inhibitor 100 µM); 84 ± 5% in assay [4] (ARG 2 mM, inhibitor 100 µM). Further, the remaining activity at 1000 µM in assay [3] (ARG 100 µM, inhibitor 1,000 µM) was found to be 56 ± 5%; in assay [3] (ARG 3 mM, inhibitor 1,000 µM), 63 ± 8%; in assay [4] (ARG 100 µM, inhibitor 1,000 µM), 56 ± 14%; in assay [4] (ARG 2 mM, inhibitor 1,000 µM), 58 ± 1%. The remaining activity at 10000 µM in assay [3] (ARG 100 µM) is 19 ± 1%; in assay [3] (ARG 3 mM) it was 22 ± 1%; in assay [4] (ARG 100 µM) it was 12 ± 4%; in assay [4] (ARG 2 mM), 33 ± 4%. The inhibition at 1000 µM in assay [3] (setting [5]) was found to be 44%; in assay [3] (setting [6]) it was 39%; in assay [4] (setting [7]), 44%; in assay [4] (setting [8]), 42%. In addition, the inhibition at 10000 µM in assay [3] (setting [5]) worked out at 81%; in assay [3] (setting [6]), 78%; in assay [4] (setting [7]), 88%; in assay [4] (setting [8]), 67%. In addition, the inhibitory constant (Ki) in assay [4] is 500 ± 30 µM; on arginase 2 (arginase 2 inhibition, ref Colleluori et al. 15) it was 7000 µM. For the same compound, the IC50 in assay [4] (IC50 ( ± SE), arginase 2, ARG 2 mM) was 900 µM and 880 µM. For the same compound, in assay [4] (physiological LYS and HOMOARG concentrations), the “inhibition of arginase 2 at physiological inhibitor concentrations” value is “no significant inhibition”.

For `CN=C(NC)NCCC[C@H](N)C(=O)O` [SDMA, NG, N′G-dimethyl-L-arginine dihydrochloride], the “% of control activity at the corresponding [Inhibitor] ± SE” value (shortened to “% of control activity … [Inhibitor] ± SE”) in assay [3] (arginase 1, ARG 100 µM, inhibitor 0.1 µM) was determined as 96 ± 3%; in assay [3] (arginase 1, ARG 100 µM, inhibitor 1 µM) it was 113 ± 22%; in assay [3] (arginase 1, ARG 100 µM, inhibitor 10 µM), 104 ± 4%; in assay [3] (arginase 1, ARG 100 µM, inhibitor 100 µM), 106 ± 17%; in assay [3] (arginase 1, ARG 100 µM, inhibitor 1,000 µM), 69 ± 10%; in assay [3] (arginase 1, ARG 3 mM, inhibitor 0.1 µM), 113 ± 16%. The “% of control activity … [Inhibitor] ± SE” value is on record as 93 ± 5% in assay [3] (arginase 1, ARG 3 mM, inhibitor 1 µM); 92 ± 2% in assay [3] (arginase 1, ARG 3 mM, inhibitor 10 µM); 84 ± 1% in assay [3] (arginase 1, ARG 3 mM, inhibitor 100 µM); 73 ± 5% in assay [3] (arginase 1, ARG 3 mM, inhibitor 1,000 µM); 90 ± 2% in assay [4] (arginase 2, ARG 100 µM, inhibitor 0.1 µM); 96 ± 1% in assay [4] (arginase 2, ARG 100 µM, inhibitor 1 µM). Moreover, the “% of control activity … [Inhibitor] ± SE” value in assay [4] (arginase 2, ARG 100 µM, inhibitor 10 µM) was 95 ± 3%; in assay [4] (arginase 2, ARG 100 µM, inhibitor 100 µM) it was 90 ± 1%; in assay [4] (arginase 2, ARG 100 µM, inhibitor 1,000 µM), 89 ± 1%; in assay [4] (arginase 2, ARG 2 mM, inhibitor 0.1 µM), 96 ± 2%; in assay [4] (arginase 2, ARG 2 mM, inhibitor 1 µM), 100 ± 3%; in assay [4] (arginase 2, ARG 2 mM, inhibitor 10 µM) it was 107 ± 1%. The “% of control activity … [Inhibitor] ± SE” value in assay [4] (arginase 2, ARG 2 mM, inhibitor 100 µM) is listed as 102 ± 1%; in assay [4] (arginase 2, ARG 2 mM, inhibitor 1,000 µM), 96 ± 1%. In assay [3] (at the concentrations tested, both ARG concentrations), the “arginase 1 inhibitor assessment in words” value is listed as “poor arginase 1 inhibitors”. Besides, the “arginase 2 inhibitor assessment in words” value in assay [4] (at the concentrations tested) is listed as “poor arginase inhibitors”.

For the compound `[Cl][Mn][Cl]` [manganese chloride], the “rate of ORN formation higher in absence of manganese supplementation” value in assay [2] (absence vs 0.5 mM manganese chloride) was 20%.

The record behind these values is article PMC5829263, “Homoarginine and inhibition of human arginase activity: kinetic characterization and biological relevance” (Scientific Reports, 2018).
